# Results published in patent publication US11395486B2, “Antibacterial and antifungal composition” (ADEKA CORPORATION, priority 2017, dated 2022).
# Assay: Evaluation of solution appearance
# Format: physicochemical
# Details: solution adjusted to the five-kind MIC, 4 mL tube, allowed to stand still, visually observed
# Protocol: […] of each of the test microbial liquids was dispensed onto a microplate, and further, […] of each of antibacterial and antifungal solutions, in which the antibacterial and antifungal compositions prepared in Examples 1 and 2 and Comparative Examples 1 to 11 were adjusted to various concentrations with a culture medium, was added to the test microbial liquid, followed by stirring, to obtain a mixed solution. In this case, the pH of each of the antibacterial and antifungal solutions was from 6.89 to 7.24. Next, in each of the mixed solutions, culture was performed as follows. The bacterium mixed solution was cultured in a constant-temperature reservoir at 37° C. for 24 hours. The yeast mixed solution was cultured in the constant-temperature reservoir at 25° C. for 3 days. The mold mixed solution was cultured in the constant-temperature reservoir at 25° C. for 1 week. […] In addition, the appearance of the antibacterial and antifungal solution was evaluated as follows. […] The appearance of the solution was visually observed and evaluated in accordance with the following criteria. […]
row,Compound,Evaluation of solution appearance
1,"OCc1ccccc1 [Comparative Example 6, benzyl alcohol]",◯
2,"O=C([O-])c1ccccc1.[Na+] [compound 7, sodium benzoate]",◯
